# From ChEMBL document CHEMBL1212931, “Identification of a naturally occurring rexinoid, honokiol, that activates the retinoid X receptor” (J Nat Prod, 2010)
# pEC50: −log10 of the molar value. Calls of active or inactive are those of the source. The calls are words filed in the database; no cut-off is given here.
# Experiments:
# [1] = target: T1, Retinoic acid receptor RXR-alpha (Homo sapiens) (UniProt P19793); experiment: Binding affinity to RXRalpha
# T1 sequence (whole entry): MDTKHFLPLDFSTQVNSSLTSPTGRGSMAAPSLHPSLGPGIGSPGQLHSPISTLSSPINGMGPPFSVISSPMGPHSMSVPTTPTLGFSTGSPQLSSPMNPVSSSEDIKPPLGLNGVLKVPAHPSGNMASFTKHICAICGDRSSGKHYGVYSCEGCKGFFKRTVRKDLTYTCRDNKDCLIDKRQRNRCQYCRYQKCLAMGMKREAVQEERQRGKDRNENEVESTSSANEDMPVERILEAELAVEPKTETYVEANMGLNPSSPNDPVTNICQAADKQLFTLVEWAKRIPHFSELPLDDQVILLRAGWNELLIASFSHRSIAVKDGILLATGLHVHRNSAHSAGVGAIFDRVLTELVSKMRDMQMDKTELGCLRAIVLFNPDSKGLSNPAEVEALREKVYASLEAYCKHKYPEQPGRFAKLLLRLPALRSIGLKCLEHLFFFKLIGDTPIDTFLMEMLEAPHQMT
# [2] = target: T2, Retinoic acid receptor RXR-alpha (Mus musculus) (UniProt P28700); experiment: Agonist activity at RXRalpha in mouse peritoneal macrophages assessed as ApoAI-mediated cholesterol efflux after 24 hrs […]; assay type: functional
# T2 sequence (whole entry): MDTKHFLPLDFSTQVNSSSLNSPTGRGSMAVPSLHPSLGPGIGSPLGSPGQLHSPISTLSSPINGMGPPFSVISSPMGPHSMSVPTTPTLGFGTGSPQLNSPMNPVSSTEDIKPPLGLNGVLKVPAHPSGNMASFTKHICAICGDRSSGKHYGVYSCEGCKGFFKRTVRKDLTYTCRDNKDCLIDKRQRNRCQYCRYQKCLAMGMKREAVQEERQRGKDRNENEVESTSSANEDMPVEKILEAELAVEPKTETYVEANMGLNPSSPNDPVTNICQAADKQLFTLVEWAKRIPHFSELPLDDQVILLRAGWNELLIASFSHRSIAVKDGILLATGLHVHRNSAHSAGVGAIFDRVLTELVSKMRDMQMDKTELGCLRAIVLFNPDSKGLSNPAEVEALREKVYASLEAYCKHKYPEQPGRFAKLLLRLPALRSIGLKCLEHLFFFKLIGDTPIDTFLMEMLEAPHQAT
# RAW264.7 [3] = experiment: Activation of RXR/LXR heterodimer in mouse RAW264.7 cells assessed as induction of ABCA1 mRNA expression by RT-PCR; assay type: cell-based
# [4] = target: T2, Retinoic acid receptor RXR-alpha (Mus musculus); experiment: Agonist activity at RXRalpha in mouse peritoneal macrophages assessed as ApoAI-mediated cholesterol efflux in presence of 22(R)-hydroxycholesterol after 24 hrs […]; assay type: functional
# [5] = target: T3, Peroxisome proliferator-activated receptor delta (Homo sapiens) (UniProt Q03181); experiment: Agonist activity at PPARdelta in HEK293 cells assessed as transcriptional activation after 48 hrs by luciferase reporter gene assay; assay type: functional, cell-based
# T3 sequence (whole entry): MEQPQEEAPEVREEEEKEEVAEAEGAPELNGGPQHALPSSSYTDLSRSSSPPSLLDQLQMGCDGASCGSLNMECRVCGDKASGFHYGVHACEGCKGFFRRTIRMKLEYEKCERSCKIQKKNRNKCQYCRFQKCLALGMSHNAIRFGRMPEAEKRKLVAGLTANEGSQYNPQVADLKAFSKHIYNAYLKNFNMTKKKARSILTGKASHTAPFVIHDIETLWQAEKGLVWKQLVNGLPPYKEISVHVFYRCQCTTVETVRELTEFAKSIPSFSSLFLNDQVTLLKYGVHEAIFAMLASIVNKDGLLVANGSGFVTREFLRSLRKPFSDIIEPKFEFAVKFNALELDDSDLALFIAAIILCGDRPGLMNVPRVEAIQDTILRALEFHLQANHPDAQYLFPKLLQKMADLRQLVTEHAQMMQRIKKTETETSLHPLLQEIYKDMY
# [6] = target: T4, Retinoic acid receptor RXR-alpha (Homo sapiens, UniProt P19793); experiment: Agonist activity at RXRalpha in HEK293 cells assessed as transcriptional activation after 48 hrs by luciferase reporter gene assay; assay type: functional, cell-based
# T4 sequence (P19793 whole entry): T1 sequence (whole entry)
# RAW264.7 [7] = experiment: Activation of RXR/LXR heterodimer in mouse RAW264.7 cells assessed as induction of ABCG1 mRNA expression by RT-PCR RXR antagonist HX531; assay type: functional, cell-based
# [8] = target: T5, Oxysterols receptor LXR-alpha (Homo sapiens) (UniProt Q13133); experiment: Agonist activity at LXRalpha in HEK293 cells assessed as transcriptional activation after 48 hrs by luciferase reporter gene assay; assay type: functional, cell-based
# T5 sequence (whole entry): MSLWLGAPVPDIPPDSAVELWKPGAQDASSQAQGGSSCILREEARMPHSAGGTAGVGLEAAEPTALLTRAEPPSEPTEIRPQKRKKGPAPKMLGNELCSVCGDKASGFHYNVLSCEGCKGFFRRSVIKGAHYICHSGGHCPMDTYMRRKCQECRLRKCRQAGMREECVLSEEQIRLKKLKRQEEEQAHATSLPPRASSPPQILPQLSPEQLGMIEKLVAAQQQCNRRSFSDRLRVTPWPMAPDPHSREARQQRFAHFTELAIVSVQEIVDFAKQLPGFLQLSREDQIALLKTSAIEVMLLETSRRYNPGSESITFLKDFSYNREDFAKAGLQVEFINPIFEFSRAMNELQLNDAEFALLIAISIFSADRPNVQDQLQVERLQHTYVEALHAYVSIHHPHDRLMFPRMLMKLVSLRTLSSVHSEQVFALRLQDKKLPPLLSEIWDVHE
# RAW264.7 [9] = experiment: Activation of RXR/LXR heterodimer in mouse RAW264.7 cells assessed as induction of ABCG1 mRNA expression by RT-PCR in presence of RXR antagonist HX531; assay type: functional, cell-based
# [10] = target: T6, Peroxisome proliferator-activated receptor gamma (Homo sapiens) (UniProt P37231); experiment: Agonist activity at PPARgamma in HEK293 cells assessed as transcriptional activation after 48 hrs by luciferase reporter gene assay; assay type: functional, cell-based
# T6 sequence (whole entry): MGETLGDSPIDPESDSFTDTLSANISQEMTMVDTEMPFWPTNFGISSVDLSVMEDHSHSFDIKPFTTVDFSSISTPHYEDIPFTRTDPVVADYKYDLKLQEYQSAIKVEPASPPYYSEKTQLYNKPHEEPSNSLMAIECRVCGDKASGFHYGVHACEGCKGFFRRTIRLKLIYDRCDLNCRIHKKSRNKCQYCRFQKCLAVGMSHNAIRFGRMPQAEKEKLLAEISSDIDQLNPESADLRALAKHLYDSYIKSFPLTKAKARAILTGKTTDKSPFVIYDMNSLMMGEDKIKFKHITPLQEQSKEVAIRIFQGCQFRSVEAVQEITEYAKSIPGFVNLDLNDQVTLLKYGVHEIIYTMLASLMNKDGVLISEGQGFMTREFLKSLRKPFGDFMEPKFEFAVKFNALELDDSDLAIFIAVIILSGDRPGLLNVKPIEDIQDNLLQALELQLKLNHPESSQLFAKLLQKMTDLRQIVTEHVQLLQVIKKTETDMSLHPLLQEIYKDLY
# RAW264.7 [11] = experiment: Activation of RXR/LXR heterodimer in mouse RAW264.7 cells assessed as induction of ABCG1 mRNA expression by RT-PCR in presence of 22(R)-hydroxycholesterol; assay type: cell-based
# RAW264.7 [12] = experiment: Activation of RXR/LXR heterodimer in mouse RAW264.7 cells assessed as induction of ABCG1 mRNA expression by RT-PCR; assay type: cell-based
Activity [1],Activity [2],SMILES,Activity (RAW264.7 [3]),other results
Active,,CC(C)CCC[C@@H](C)CCC[C@@H](C)CCCC(C)CC(=O)O (stereo partly drawn),,
,Active,C=C(c1ccc(C(=O)O)cc1)c1cc2c(cc1C)C(C)(C)CCC2(C)C,Dose-dependent effect,
Active,Active,C=CCc1ccc(O)c(-c2ccc(O)c(CC=C)c2)c1 [HONOKIOL],Dose-dependent effect,Activity [4]: inactive; Activity [5]: inactive; pEC50 [6]: 4.93; Activity (RAW264.7 [7]): inactive; Activity [8]: inactive; Activity (RAW264.7 [9]): inactive; Activity [10]: inactive; Activity (RAW264.7 [11]): Active; Activity (RAW264.7 [12]): Active
Active,,CC/C=C\C/C=C\C/C=C\C/C=C\C/C=C\C/C=C\CCC(=O)O,,

SMILES,Activity [1],Activity [2],Activity (RAW264.7 [3]),other results
CC(C)CC[C@@H](O)[C@@H](C)[C@H]1CC[C@H]2[C@@H]3CC=C4C[C@@H](O)CC[C@]4(C)[C@H]3CC[C@]12C,,Active,Dose-dependent effect,
